Columns and labels:
Type in all cases: in vivo
[1] = test system: Italian ryegrass (Lolium multiflorum); assay: Test B pre-/postemergence plant response
Method in brief: (§1)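 Preemergence and postemergence (plants 2-18 cm, 1- to 4-leaf stage) applications used test chemicals in a non-phytotoxic solvent with surfactant. Plants were held in a greenhouse 13 to 15 days, then rated visually against controls on a 0-100 scale (0 no effect, 100 complete control).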

[2] = test system: johnsongrass (Sorghum halepense); assay: Test B pre-/postemergence plant response
Method in brief: as §1

[3] = test system: morningglory (Ipomoea coccinea); assay: Test B pre-/postemergence plant response
Method in brief: as §1

[4] = test system: goosegrass (Eleusine indica); assay: Test B pre-/postemergence plant response
Method in brief: as §1

[5] = test system: pigweed (Amaranthus retroflexus); assay: Test B pre-/postemergence plant response
Method in brief: as §1

[6] = test system: velvetleaf (Abutilon theophrasti); assay: Test B pre-/postemergence plant response
Method in brief: as §1

[7] = test system: catchweed bedstraw (Galium aparine); assay: Test B pre-/postemergence plant response; conditions: Preemergence, scale 0 to 100
Method in brief: as §1

[8] = test system: lambsquarters (Chenopodium album); assay: Test B pre-/postemergence plant response
Method in brief: as §1

[9] = test system: giant foxtail (Setaria faberii); assay: Test B pre-/postemergence plant response
Method in brief: as §1

[10] = test system: large crabgrass (Digitaria sanguinalis); assay: Test B pre-/postemergence plant response
Method in brief: as §1

soybean (Glycine max) = assay: Test B pre-/postemergence plant response
Method in brief: as §1

[11] = test system: bermudagrass (Cynodon dactylon); assay: Test B pre-/postemergence plant response; conditions: for Bermudagrass plant response rating: 8 g ai/ha
Method in brief: as §1

kochia (Kochia scoparia) = assay: Test B pre-/postemergence plant response
Method in brief: as §1

rice (Oryza sativa) = assay: Test B flooded paddy test plant response; conditions: Flood (flooded paddy test), scale 0 to 100, 0 no effect, 100 complete control
Method in brief: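 2-leaf plants; pots flooded 3 cm above soil; compound added to paddy water; depth maintained. Greenhouse 13–15 d. Visual rating vs controls, 0 (no effect) to 100 (complete control); dash = no result.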

[12] = 8 g ai/ha, postemergence, 0-100 scale
[13] = Postemergence, 16 g ai/ha, scale 0 to 100
[14] = Postemergence, 31 g ai/ha, scale 0 to 100
[15] = Postemergence, 62 g ai/ha, scale 0 to 100, 0 no effect, 100 complete control
[16] = Preemergence, 31 g ai/ha, scale 0 to 100 (0 no effect, 100 complete control)
[17] = Preemergence, 62 g ai/ha, scale 0 to 100
[18] = Preemergence, 8 g ai/ha, scale 0 to 100
[19] = Preemergence, 16 g ai/ha, scale 0 to 100
[20] = Preemergence, 31 g ai/ha, 0 to 100 scale, 0 no effect, 100 complete control

Structure (SMILES): Cc1cc(-c2ccc(Cl)cc2)nn1-c1c(OC(=O)c2cccs2)cnn(C)c1=O [Compound 52]
- Ryegrass, Italian plant response rating [1, 12]: 70
- Plant response rating, Ryegrass, Italian [1, 13]: 80
- Plant response rating, Ryegrass, Italian [1, 14]: 95
- Plant response rating, Ryegrass, Italian [1, 15]: 100
- Plant response rating, Ryegrass, Italian [1, 16]: 95
- Plant response rating, Ryegrass, Italian [1, 17]: 100
- Ryegrass, Italian plant response rating [1, 18]: 0
- Ryegrass, Italian plant response rating [1, 19]: 95
- Johnsongrass plant response rating [2, 12]: 75
- Plant response rating, Johnsongrass [2, 13]: 80
- Plant response rating, Johnsongrass [2, 14]: 90
- Plant response rating, Johnsongrass [2, 15]: 95
- Plant response rating, Johnsongrass [2, 20]: 80
- Plant response rating, Johnsongrass [2, 17]: 85
- Johnsongrass plant response rating [2, 18]: 55
- Johnsongrass plant response rating [2, 19]: 65
- Morningglory plant response rating [3, 12]: 0
- Plant response rating, Morningglory [3, 13]: 0
- Plant response rating, Morningglory [3, 14]: 0
- Plant response rating, Morningglory [3, 15]: 0
- Plant response rating, Morningglory [3, 16]: 90
- Plant response rating, Morningglory [3, 17]: 100
- Morningglory plant response rating [3, 18]: 0
- Morningglory plant response rating [3, 19]: 0
- Goosegrass plant response rating [4, 12]: 60
- Plant response rating, Goosegrass [4, 13]: 65
- Plant response rating, Goosegrass [4, 14]: 80
- Plant response rating, Goosegrass [4, 15]: 85
- Plant response rating, Goosegrass [4, 20]: 0
- Plant response rating, Goosegrass [4, 17]: 0
- Goosegrass plant response rating [4, 18]: 0
- Goosegrass plant response rating [4, 19]: 0
- Pigweed plant response rating [5, 12]: 0
- Plant response rating, Pigweed [5, 13]: 0
- Plant response rating, Pigweed [5, 14]: 0
- Plant response rating, Pigweed [5, 15]: 0
- Plant response rating, Pigweed [5, 16]: 0
- Plant response rating, Pigweed [5, 17]: 0
- Pigweed plant response rating [5, 18]: 0
- Pigweed plant response rating [5, 19]: 0
- Velvetleaf plant response rating [6, 12]: 0
- Plant response rating, Velvetleaf [6, 13]: 0
- Plant response rating, Velvetleaf [6, 14]: 0
- Plant response rating, Velvetleaf [6, 15]: 0
- Plant response rating, Velvetleaf [6, 16]: 0
- Plant response rating, Velvetleaf ([6]; Preemergence, 62 g ai/ha, 0 to 100 scale, 0 no effect, 100 complete control): 0
- Velvetleaf plant response rating [6, 18]: 0
- Velvetleaf plant response rating [6, 19]: 0
- Plant response rating, Galium ([7]; 62 g ai/ha): 0
- Galium plant response rating ([7]; 8 g ai/ha): 0
- Galium plant response rating ([7]; 16 g ai/ha): 0
- Lambsquarters plant response rating [8, 12]: 0
- Plant response rating, Lambsquarters [8, 13]: 0
- Plant response rating, Lambsquarters [8, 14]: 0
- Plant response rating, Lambsquarters [8, 15]: 0
- Plant response rating, Lambsquarters [8, 20]: 0
- Plant response rating, Lambsquarters [8, 17]: 0
- Lambsquarters plant response rating [8, 18]: 0
- Lambsquarters plant response rating [8, 19]: 0
- Foxtail, Giant plant response rating [9, 12]: 85
- Plant response rating, Foxtail, Giant [9, 13]: 98
- Plant response rating, Foxtail, Giant [9, 14]: 100
- Plant response rating, Foxtail, Giant [9, 15]: 100
- Plant response rating, Foxtail, Giant [9, 20]: 0
- Plant response rating, Foxtail, Giant [9, 17]: 98
- Foxtail, Giant plant response rating [9, 18]: 0
- Foxtail, Giant plant response rating [9, 19]: 0
- Crabgrass, Large plant response rating [10, 12]: 65
- Plant response rating, Crabgrass, Large [10, 13]: 85
- Plant response rating, Crabgrass, Large [10, 14]: 100
- Plant response rating, Crabgrass, Large [10, 15]: 100
- Plant response rating, Crabgrass, Large [10, 20]: 0
- Plant response rating, Crabgrass, Large [10, 17]: 0
- Crabgrass, Large plant response rating [10, 18]: 0
- Crabgrass, Large plant response rating [10, 19]: 0
- Soybean plant response rating (soybean (Glycine max); [12]): 0
- Plant response rating, Soybean (soybean (Glycine max); [13]): 0
- Plant response rating, Soybean (soybean (Glycine max); [14]): 0
- Plant response rating, Soybean (soybean (Glycine max); [15]): 0
- Plant response rating, Soybean (soybean (Glycine max); [17]): 0
- Soybean plant response rating (soybean (Glycine max); [18]): 0
- Soybean plant response rating (soybean (Glycine max); [19]): 0
- Bermudagrass plant response rating ([11]; postemergence, 0-100 scale): 40
- Plant response rating, Bermudagrass [11, 13]: 98
- Plant response rating, Bermudagrass [11, 14]: 100
- Plant response rating, Bermudagrass [11, 15]: 100
- Bermudagrass plant response rating ([11]; Preemergence, scale 0 to 100 (0 no effect, 100 complete control)): 0
- Plant response rating, Bermudagrass ([11]; Preemergence, 16 g ai/ha, scale 0 to 100 (0 no effect, 100 complete control)): 0
- Plant response rating, Bermudagrass [11, 20]: 0
- Plant response rating, Bermudagrass [11, 17]: 85
- Kochia plant response rating (kochia (Kochia scoparia); [12]): 0
- Plant response rating, Kochia (kochia (Kochia scoparia); [13]): 0
- Plant response rating, Kochia (kochia (Kochia scoparia); [14]): 0
- Plant response rating, Kochia (kochia (Kochia scoparia); [15]): 0
- Plant response rating, Kochia (kochia (Kochia scoparia); [17]): 85
- Kochia plant response rating (kochia (Kochia scoparia); [18]): 0
- Kochia plant response rating (kochia (Kochia scoparia); [19]): 0
- Plant response rating, Rice (rice (Oryza sativa); 62 g ai/ha): 10
- Plant response rating, Rice (rice (Oryza sativa); 250 g ai/ha): 60
